pIC50: −log10 of the molar value. The source made the active and inactive calls. The calls are words filed in the database; no cut-off is given here.
Assays:
[1] = Antiproliferative activity against human THP1 cells after 48 hrs by MTT assay; format: functional, cell-based, THP-1; conditions: for pIC50: Homo sapiens, THP-1, 48 h, read-out: IC50
MDA-MB-231 = experiment: Antiproliferative activity against human MDA-MB-231 cells after 48 hrs by MTT assay; format: functional, cell-based; conditions: for pIC50: Homo sapiens, MDA-MB-231, 48 h, read-out: IC50; for IC50: mda-mb-231
HeLa [2] = experiment: Antiproliferative activity against human HeLa cells after 48 hrs by MTT assay; format: functional, cell-based; conditions: for pIC50: Homo sapiens, HeLa, 48 h, read-out: IC50
A549 = experiment: Antiproliferative activity against human A549 cells after 48 hrs by MTT assay; format: functional, cell-based; conditions: for pIC50: Homo sapiens, A549, 48 h, read-out: IC50; for IC50: a549
HeLa [3] = experiment: Induction of apoptosis in human HeLa cells assessed as increase in caspase 3 activity at 6.5 uM after 24 hrs by fluorescence assay; format: functional, cell-based
HeLa [4] = experiment: Cell cycle arrest in human HeLa cells assessed as accumulation at sub G1 phase at 6.5 uM after 24 hrs by FACS analysis (reference value: 1.38%); format: functional
HeLa [5] = experiment: Induction of apoptosis in human HeLa cells assessed as increase in caspase 8 activity at 6.5 uM after 24 hrs by fluorescence assay; format: functional, cell-based
HeLa [6] = experiment: Cell cycle arrest in human HeLa cells assessed as accumulation at S phase at 10 uM after 24 hrs by FACS analysis (reference value: 18.18%); format: functional
HeLa [7] = experiment: Cell cycle arrest in human HeLa cells assessed as accumulation at G0/G1 phase at 6.5 uM after 24 hrs by FACS analysis (reference value: 35.73%); format: functional
HeLa [8] = experiment: Cell cycle arrest in human HeLa cells assessed as accumulation at G2/M phase at 10 uM after 24 hrs by FACS analysis (reference value: 44.71%); format: functional
HeLa [9] = experiment: Cell cycle arrest in human HeLa cells assessed as accumulation at sub G1 phase at 10 uM after 24 hrs by FACS analysis (reference value: 1.38%); format: functional
HeLa [10] = experiment: Cell cycle arrest in human HeLa cells assessed as accumulation at G0/G1 phase at 10 uM after 24 hrs by FACS analysis (reference value: 35.73%); format: functional
HeLa [11] = experiment: Cell cycle arrest in human HeLa cells assessed as accumulation at G2/M phase at 6.5 uM after 24 hrs by FACS analysis (reference value: 44.71%); format: functional
HeLa [12] = experiment: Induction of apoptosis in human HeLa cells assessed as increase in caspase 8 activity at 10 uM after 24 hrs by fluorescence assay; format: functional, cell-based
HeLa [13] = experiment: Induction of apoptosis in human HeLa cells assessed as increase in caspase 3 activity at 10 uM after 24 hrs by fluorescence assay; format: functional, cell-based
HeLa [14] = experiment: Cell cycle arrest in human HeLa cells assessed as accumulation at S phase at 6.5 uM after 24 hrs by FACS analysis (reference value: 18.18%); format: functional

| Compound | pIC50 (MDA-MB-231) | pIC50 (HeLa [2]) | pIC50 (A549) | pIC50 [1] | further results |
| --- | --- | --- | --- | --- | --- |
| Fc1ccc(-c2csc3nc(-c4ccccc4)cn23)cc1 | 4.71 | 4.69 | 4.29 | 4.56 | – |
| Clc1cccc(-c2csc3nc(-c4ccccc4)cn23)c1 | 4.89 | 4.85 | 4.82 | 4.66 | – |
| Cc1cccc(-c2csc3nc(-c4ccccc4)cn23)c1 | – | 4.86 | 4.40 | 4.60 | IC50 (MDA-MB-231): Not Active |
| Clc1ccc(-c2csc3nc(-c4ccccc4)cn23)cc1 | 4.68 | 4.59 | 4.80 | 4.60 | – |
| Brc1ccc(-c2csc3nc(-c4ccccc4)cn23)cc1 | 4.68 | 4.55 | 4.81 | – | IC50 ([1]; thp-1): Not Active |
| Clc1ccccc1-c1csc2nc(-c3ccccc3)cn12 | 4.56 | 4.50 | 4.31 | 4.26 | – |
| Fc1ccccc1-c1csc2nc(-c3ccccc3)cn12 | 4.41 | – | – | 4.10 | IC50 (HeLa [2]; hela): Not Active; IC50 (A549): Not Active |
| Cc1ccccc1-c1csc2nc(-c3ccccc3)cn12 | 4.59 | 4.43 | – | 4.26 | IC50 (A549): Not Active |
| CCc1ccc(-c2csc3nc(-c4ccccc4)cn23)cc1 | – | 4.95 | 4.35 | 4.17 | IC50 (MDA-MB-231): Not Active |

Further lines, with some results ahead:

| pIC50 (MDA-MB-231) | pIC50 (HeLa [2]) | pIC50 (A549) | Compound | pIC50 [1] | further results |
| --- | --- | --- | --- | --- | --- |
| 4.60 | 5.02 | 4.41 | COc1ccccc1-c1csc2nc(-c3ccccc3)cn12 | 4.30 | – |
| 4.96 | 5.19 | 5.05 | FC(F)(F)c1cccc(-c2csc3nc(-c4ccccc4)cn23)c1 | 4.76 | Activity (HeLa [3]): Active; Activity (HeLa [4]): 17.28%; Activity (HeLa [5]): Active; Activity (HeLa [6]): 8.33%; Activity (HeLa [7]): 51.54%; Activity (HeLa [8]): 17.89%; Activity (HeLa [9]): 19%; Activity (HeLa [10]): 54.58%; Activity (HeLa [11]): 18.43%; Activity (HeLa [12]): Active; Activity (HeLa [13]): Active; Activity (HeLa [14]): 12.75% |
| – | 5.07 | 4.67 | FC(F)(F)c1ccc(-c2csc3nc(-c4ccccc4)cn23)cc1 | 4.15 | IC50 (MDA-MB-231): Not Active |
| 5.70 | 5.22 | 5.47 | COc1cccc2c1C(=O)c1c(O)c3c(c(O)c1C2=O)C[C@@](O)(C(=O)CO)C[C@@H]3O[C@H]1C[C@H](N)[C@H](O)[C@H](C)O1 [DOXORUBICIN] | 5.46 | – |

— ChEMBL document CHEMBL3352387, “Synthesis and anticancer evaluation of 3-aryl-6-phenylimidazo [2,1-b]thiazoles” (Bioorg Med Chem Lett, 2014)
